Several values for one entry are separate records, joined by “and”; a condition that tells them apart may be missing. Equal entries are not always repeated.
What was measured:
Type in all cases: cell-based
[1] = test system: human ovarian adenocarcinoma SKOV-3 cells; test: Cytotoxicity assay (CellTiter-Glo, 72 h), SKOV-3; conditions: raw replicate data
Protocol: (§1) Jurkat cells were cultured in RPMI1640 medium supplemented with 10% foetal bovine serum, penicillin (50 U/ml), streptomycin (50 μg/ml), and Glutamax. SKOV-3 cells were cultured in DMEM medium supplemented with 10% fetal bovine serum, penicillin (50 U/ml), and streptomycin (50 μg/ml). MESO-1 cells were cultured in RPMI1640 medium supplemented with 10% fetal bovine serum, penicillin (50 U/ml), and streptomycin (50 μg/ml). All cell lines were seeded in a 384-well plate at a density of 1000 cells/well in 20 μl of media and incubated at 37 °C in a humidified incubator with 5% CO2. After 4 h, 2-fold dilution samples resolved in DMSO were added to the cell culture at the concentration of 0.5% (0.1 μl) and incubated for 72 h. Cell viabilities were measured using a CellTiter-Glo luminescent cell viability assay and EnVision multilabel plate reader.

[2] = test system: malignant pleural mesothelioma MESO-1 cells; test: Cytotoxicity assay (CellTiter-Glo, 72 h), MESO-1; conditions: raw replicate data
Protocol: as §1

T lymphoma Jurkat cells = test: Cytotoxicity assay (CellTiter-Glo, 72 h), Jurkat; conditions: raw data (replicates)
Protocol: as §1

[3] = test system: Jurkat, SKOV-3 and MESO-1 cells; test: Cytotoxicity assay, statements for all tested cell lines together; conditions: against the tested cell lines (Jurkat, SKOV-3, MESO-1)
Protocol: as §1

FKBP12 and mTOR = target: T1, FKBP12 and mTOR (Homo sapiens, UniProt P42345+P62942); test: Fluoppi analysis: induction of FKBP12-mTOR complex formation in transfected HeLa cells; conditions: for Foci intensity: raw data, one replicate per line
T1 construct: host or cells: HeLa cells
Protocol: Fluoppi harbours a tetrameric fluorescent protein hAG tag and an oligomeric assembly helper Ash tag to create detectable fluorescent foci in cells when there are interactions between two proteins fused to each tag[32].
HeLa cells were maintained in DMEM (Fujifilm Wako, Osaka, Japan) supplemented with 10% FBS (Thermo Fisher Scientific, MA, USA) and 1% of Penicillin-Streptomycin (Thermo Fisher Scientific) in a humidified incubator with 5% CO2 at 37 °C. Harvested cells were plated at 1 × 10^6 cells/well in 6-well plate and incubated for 6 h. Then each 1.25 µg of phAG-mTOR and pAsh-FKBP12 (Medical and Biological Laboratories Co., Ltd., Aichi, Japan) was co-transfected with Lipofectamine 2000 reagent (Thermo Fisher Scientific) overnight. Next day, transfected cells were harvested and seeded in 384-well optical-bottom microplate (PerkinElmer, MA, USA) at a density of 3000 cells/well. After the 24 h incubation at 37 °C, cells were treated with different concentrations of compounds for 1 h. Cells were then fixed with 4% paraformaldehyde and stained with 1 µg/ml of Hoechst33342 (Thermo Fisher Scientific). Cell images of 9 visual fields/well were acquired with ×20 objective lens in Opera Phenix High-Content Screening System (PerkinElmer) and analysed by Harmony4.9 software (PerkinElmer). Because protein-protein interactions are quantified by measuring the aggregation of fluorescent elements in foci, fluorescent intensity in foci was normalised by total fluorescent intensity in each cell. EC50 values were calculated using TIBCO Spotfire 10.3 software (PerkinElmer).

T1 sequence (P42345 2025-2114 limits assumed): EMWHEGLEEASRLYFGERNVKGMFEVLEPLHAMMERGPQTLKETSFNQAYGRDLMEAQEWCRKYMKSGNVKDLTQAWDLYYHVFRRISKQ
T1 sequence (P62942 whole entry): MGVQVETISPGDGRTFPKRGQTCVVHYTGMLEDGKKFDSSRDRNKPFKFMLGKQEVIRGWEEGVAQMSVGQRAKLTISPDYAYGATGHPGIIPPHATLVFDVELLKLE

PPI-inducing (binding enhancing) activity between FKBP12 and mTOR compared with rapamycin (1), in words (FKBP12 and mTOR; Fluoppi): relatively weaker activities
EC50 (FKBP12 and mTOR; Fluoppi, HeLa cells, 1 h treatment, three independent biological replicates, read-out: EC50, induction of the formation of FKBP-mTOR complex): 21 nM
Foci intensity (FKBP12 and mTOR; conc 9.53674e-5 uM): 0.02938 and 0.02062 and 0.01935
Foci intensity (FKBP12 and mTOR; conc 0.000190735 uM): 0.01089 and 0.04735 and 0.006372
Foci intensity (FKBP12 and mTOR; conc 0.00038147 uM): 0.02158 and 0.01349 and 0.009009
Foci intensity (FKBP12 and mTOR; conc 0.000762939 uM): 0.009136 and 0.02959 and 0.01473
Foci intensity (FKBP12 and mTOR; conc 0.00152588 uM): 0.01663 and 0.006313 and 0.01798
Foci intensity (FKBP12 and mTOR; conc 0.00305176 uM): 0.01047 and 0.01326 and 0.01713
Foci intensity (FKBP12 and mTOR; conc 0.00610352 uM): 0.03111 and 0.03528 and 0.05091
Foci intensity (FKBP12 and mTOR; conc 0.012207 uM): 0.1191 and 0.0902 and 0.07426
Foci intensity (FKBP12 and mTOR; conc 0.0244141 uM): 0.2308 and 0.2676 and 0.239
Foci intensity (FKBP12 and mTOR; conc 0.0488281 uM): 0.3046 and 0.3291 and 0.3775
Foci intensity (FKBP12 and mTOR; conc 0.0976562 uM): 0.4136 and 0.3574 and 0.3612
Foci intensity (FKBP12 and mTOR; conc 0.195312 uM): 0.3726 and 0.4258 and 0.4147
Foci intensity (FKBP12 and mTOR; conc 0.390625 uM): 0.4457 and 0.3806 and 0.4256
Foci intensity (FKBP12 and mTOR; conc 0.78125 uM): 0.3848 and 0.4238 and 0.4902
Foci intensity (FKBP12 and mTOR; conc 1.5625 uM): 0.4004 and 0.3924 and 0.3797
Foci intensity (FKBP12 and mTOR; conc 3.125 uM): 0.374 and 0.3995 and 0.4137
Foci intensity (FKBP12 and mTOR; conc 6.25 uM): 0.4751 and 0.3772 and 0.3106
Foci intensity (FKBP12 and mTOR; conc 12.5 uM): 0.4864 and 0.3577 and 0.3572
Foci intensity (FKBP12 and mTOR; conc 25 uM): 0.403 and 0.3428 and 0.3243
Foci intensity (FKBP12 and mTOR; conc 50 uM): 0.4648 and 0.4194 and 0.3824
Structure (SMILES): COC1CC2CCC(C)C(O)(O2)C(=O)C(=O)N2CCCCC2C(=O)OC(C(C)CC2CCC(O)C(OC)C2)CC=C(C)C(O)CC(=O)C(C)CC(C)C=CC=CC=C1C (centres unmarked) [Compound 10]
SKOV3 viability (%) ([1]; conc 9.53674e-5 uM): 102.2% and 102.6% and 104.7%
SKOV3 viability (%) ([1]; conc 0.000190735 uM): 89.9% and 100.2% and 100.4%
SKOV3 viability (%) ([1]; conc 0.00038147 uM): 103.4% and 105.0% and 103.9%
SKOV3 viability (%) ([1]; conc 0.000762939 uM): 100.5% and 98.4% and 99.4%
SKOV3 viability (%) ([1]; conc 0.00152588 uM): 106.0% and 105.3%
SKOV3 viability (%) ([1]; conc 0.00305176 uM): 103.5% and 101.1% and 97.3%
SKOV3 viability (%) ([1]; conc 0.00610352 uM): 103.4% and 105.6% and 104.9%
SKOV3 viability (%) ([1]; conc 0.012207 uM): 103.7% and 98.9% and 95.6%
SKOV3 viability (%) ([1]; conc 0.0244141 uM): 104.7% and 103.8% and 99.6%
SKOV3 viability (%) ([1]; conc 0.0488281 uM): 100.2% and 99.1% and 100.0%
SKOV3 viability (%) ([1]; conc 0.0976562 uM): 104.8% and 104.3% and 100.1%
SKOV3 viability (%) ([1]; conc 0.195312 uM): 95.4% and 97.0% and 94.0%
SKOV3 viability (%) ([1]; conc 0.390625 uM): 97.7% and 103.0% and 102.9%
SKOV3 viability (%) ([1]; conc 0.78125 uM): 93.0% and 94.9% and 92.8%
SKOV3 viability (%) ([1]; conc 1.5625 uM): 96.7% and 99.9% and 92.6%
SKOV3 viability (%) ([1]; conc 3.125 uM): 90.3% and 92.8% and 92.7%
SKOV3 viability (%) ([1]; conc 6.25 uM): 95.7% and 97.5% and 89.4%
SKOV3 viability (%) ([1]; conc 12.5 uM): 93.5% and 97.4% and 91.5%
SKOV3 viability (%) ([1]; conc 25 uM): 91.8% and 89.5% and 94.8%
SKOV3 viability (%) ([1]; conc 50 uM): 48.8% and 50.2% and 51.9%
MESO1 viability (%) ([2]; conc 9.53674e-5 uM): 100.8% and 105.3% and 105.4%
MESO1 viability (%) ([2]; conc 0.000190735 uM): 95.7% and 102.9% and 100.7%
MESO1 viability (%) ([2]; conc 0.00038147 uM): 104.6% and 103.5% and 110.6%
MESO1 viability (%) ([2]; conc 0.000762939 uM): 99.4% and 101.6% and 106.3%
MESO1 viability (%) ([2]; conc 0.00152588 uM): 103.6% and 107.9% and 110.6%
MESO1 viability (%) ([2]; conc 0.00305176 uM): 103.7% and 97.7% and 102.1%
MESO1 viability (%) ([2]; conc 0.00610352 uM): 102.5% and 110.7% and 106.5%
MESO1 viability (%) ([2]; conc 0.012207 uM): 100.1% and 112.2% and 102.4%
MESO1 viability (%) ([2]; conc 0.0244141 uM): 100.1% and 101.2% and 104.6%
MESO1 viability (%) ([2]; conc 0.0488281 uM): 99.1% and 97.8% and 101.7%
MESO1 viability (%) ([2]; conc 0.0976562 uM): 102.3% and 104.8% and 99.5%
MESO1 viability (%) ([2]; conc 0.195312 uM): 92.8% and 95.2% and 98.3%
MESO1 viability (%) ([2]; conc 0.390625 uM): 100.3% and 99.6% and 94.3%
MESO1 viability (%) ([2]; conc 0.78125 uM): 88.5% and 91.5% and 91.8%
MESO1 viability (%) ([2]; conc 1.5625 uM): 91.5% and 95.3% and 90.6%
MESO1 viability (%) ([2]; conc 3.125 uM): 85.5% and 90.0% and 83.9%
MESO1 viability (%) ([2]; conc 6.25 uM): 92.1% and 98.3% and 96.6%
MESO1 viability (%) ([2]; conc 12.5 uM): 90.4% and 90.6% and 90.0%
MESO1 viability (%) ([2]; conc 25 uM): 77.8% and 73.6% and 73.2%
MESO1 viability (%) ([2]; conc 50 uM): 53.8% and 51.9% and 42.0%
Jurkat viability (%) (T lymphoma Jurkat cells; conc 9.53674e-5 uM): 100.6% and 99.4% and 103.1%
Jurkat viability (%) (T lymphoma Jurkat cells; conc 0.000190735 uM): 101.6% and 102.5% and 98.5%
Jurkat viability (%) (T lymphoma Jurkat cells; conc 0.00038147 uM): 98.4% and 99.9%
Jurkat viability (%) (T lymphoma Jurkat cells; conc 0.000762939 uM): 100.1% and 103.3% and 99.4%
Jurkat viability (%) (T lymphoma Jurkat cells; conc 0.00152588 uM): 103.7% and 95.3% and 102.7%
Jurkat viability (%) (T lymphoma Jurkat cells; conc 0.00305176 uM): 99.4% and 102.2% and 96.7%
Jurkat viability (%) (T lymphoma Jurkat cells; conc 0.00610352 uM): 103.1% and 102.2% and 98.6%
Jurkat viability (%) (T lymphoma Jurkat cells; conc 0.012207 uM): 106.4% and 103.4% and 103.7%
Jurkat viability (%) (T lymphoma Jurkat cells; conc 0.0244141 uM): 106.5% and 107.7% and 103.0%
Jurkat viability (%) (T lymphoma Jurkat cells; conc 0.0488281 uM): 101.8% and 99.9% and 103.2%
Jurkat viability (%) (T lymphoma Jurkat cells; conc 0.0976562 uM): 106.2% and 107.8% and 101.3%
Jurkat viability (%) (T lymphoma Jurkat cells; conc 0.195312 uM): 97.6% and 99.7% and 92.3%
Jurkat viability (%) (T lymphoma Jurkat cells; conc 0.390625 uM): 92.6% and 88.6% and 95.1%
Jurkat viability (%) (T lymphoma Jurkat cells; conc 0.78125 uM): 82.4% and 83.0% and 85.1%
Jurkat viability (%) (T lymphoma Jurkat cells; conc 1.5625 uM): 79.7% and 82.1% and 77.6%
Jurkat viability (%) (T lymphoma Jurkat cells; conc 3.125 uM): 74.2% and 71.9% and 69.9%
Jurkat viability (%) (T lymphoma Jurkat cells; conc 6.25 uM): 76.5% and 74.7% and 74.5%
Jurkat viability (%) (T lymphoma Jurkat cells; conc 12.5 uM): 63.4% and 64.1% and 59.5%
Jurkat viability (%) (T lymphoma Jurkat cells; conc 25 uM): 29.8% and 32.1% and 29.9%
Jurkat viability (%) (T lymphoma Jurkat cells; conc 50 uM): 2.7% and 3.5% and 3.4%
Concentration at which cytotoxic activities were shown [3]: over 10 µM

Source: article PMC7419507, “In vitro Cas9-assisted editing of modular polyketide synthase genes to produce desired natural product derivatives” (Nature Communications, 2020)
